Results from the NIST ThermoML archive (doi:10.1021/acs.jced.9b00371).

Details: Liquid, Brillouin light scattering method

CCCCCCCC(=O)OC [methyl octanoate]
Details	speed of sound [m/s]
298.22 K, 7000 kPa	1316.3
298.3 K, 10010 kPa	1327.9
298.44 K, 1010 kPa	1292.1
298.44 K, 5000 kPa	1307.1
298.6 K, 3000 kPa	1298.2
298.84 K, 90 kPa	1274.5
308.25 K, 3010 kPa	1258.8
308.37 K, 10010 kPa	1291.2
308.42 K, 100 kPa	1236.4
308.49 K, 7010 kPa	1280.4
308.52 K, 1010 kPa	1248.8
308.58 K, 5010 kPa	1270.1
318.18 K, 5010 kPa	1221.3
318.56 K, 7020 kPa	1229.5
318.76 K, 10010 kPa	1242.4
318.91 K, 3010 kPa	1208
319.59 K, 110 kPa	1192.3
319.89 K, 1010 kPa	1194.5
327.96 K, 5010 kPa	1186
328.11 K, 3020 kPa	1171.3
328.36 K, 100 kPa	1158
328.69 K, 7010 kPa	1191.4
328.82 K, 10010 kPa	1209.9
328.88 K, 1010 kPa	1155.4
337.63 K, 100 kPa	1121.6
337.88 K, 7010 kPa	1157.9
338.43 K, 1010 kPa	1125.5
338.46 K, 10010 kPa	1174.8
338.47 K, 5000 kPa	1147.2
338.96 K, 3000 kPa	1134.3
347.39 K, 3000 kPa	1104.6
347.87 K, 10010 kPa	1148.4
348.45 K, 110 kPa	1078.6
348.54 K, 5020 kPa	1109.1
348.77 K, 7000 kPa	1120.5
348.8 K, 1000 kPa	1085.5
357.69 K, 3010 kPa	1071.8
357.74 K, 5000 kPa	1079.2
357.91 K, 10000 kPa	1112.7
358.16 K, 100 kPa	1044.6
358.25 K, 7000 kPa	1095.1
358.56 K, 1010 kPa	1049.3
367.26 K, 5000 kPa	1049.2
367.28 K, 3000 kPa	1038.1
367.29 K, 110 kPa	1015.5
367.47 K, 10010 kPa	1078.4
367.73 K, 7010 kPa	1060.7
368.05 K, 1000 kPa	1017.5
377.8 K, 1000 kPa	989.1
378.03 K, 7000 kPa	1027.3
378.16 K, 4990 kPa	1013.1
378.27 K, 100 kPa	975.6
378.29 K, 10000 kPa	1047.1
378.6 K, 3000 kPa	1000.4
387.15 K, 110 kPa	947.3
387.64 K, 3000 kPa	964.7
387.88 K, 10010 kPa	1017.7
388.01 K, 7000 kPa	991.8
388.02 K, 1000 kPa	952.1
388.04 K, 5000 kPa	978.4
397.22 K, 1010 kPa	922.4
397.37 K, 3010 kPa	934
397.49 K, 10010 kPa	988
397.57 K, 7010 kPa	963.7
397.59 K, 5010 kPa	949.2
397.71 K, 100 kPa	910.7
407.84 K, 5010 kPa	916.3
408.01 K, 10010 kPa	954.1
408.03 K, 3000 kPa	896.1
408.14 K, 100 kPa	873.1
408.48 K, 7010 kPa	933.8
409.43 K, 1000 kPa	879.8
417.31 K, 1010 kPa	850.6
417.49 K, 110 kPa	841.4
417.49 K, 5000 kPa	885.5
417.57 K, 7000 kPa	904.2
417.65 K, 10000 kPa	925.4
417.75 K, 3000 kPa	867.9
427.78 K, 110 kPa	811.6
427.88 K, 7010 kPa	873.7
427.9 K, 1010 kPa	822.3
427.93 K, 3010 kPa	837.5
427.94 K, 10010 kPa	899.7
427.95 K, 5010 kPa	855.8
438.55 K, 100 kPa	775.1
438.61 K, 1000 kPa	780.2
438.61 K, 10010 kPa	866.1
438.81 K, 7000 kPa	838.7
438.87 K, 5000 kPa	823.4
438.94 K, 3010 kPa	803.1
447.87 K, 1010 kPa	754.6
447.88 K, 5000 kPa	793.5
447.92 K, 7000 kPa	813.8
447.96 K, 3010 kPa	776.7
447.96 K, 10000 kPa	841
448.01 K, 110 kPa	744.4
457.92 K, 1000 kPa	724.7
458.07 K, 5010 kPa	760.9
458.12 K, 7010 kPa	782.2
458.17 K, 3000 kPa	744.1
458.18 K, 10010 kPa	810.7
467.43 K, 10010 kPa	784.5
467.58 K, 7010 kPa	759.7
467.9 K, 5000 kPa	738.9
468.47 K, 1010 kPa	694.8
468.68 K, 3000 kPa	713.7
476.82 K, 5010 kPa	710.8
477 K, 10010 kPa	759.6
477.06 K, 1000 kPa	665
477.26 K, 7010 kPa	729
477.88 K, 3010 kPa	685.8
486.8 K, 1000 kPa	631
486.87 K, 3000 kPa	654.3
486.92 K, 5010 kPa	682
486.96 K, 7010 kPa	700
487 K, 10010 kPa	738.2
498.13 K, 3010 kPa	625.4
498.28 K, 7000 kPa	667.5
498.28 K, 10000 kPa	705
498.41 K, 5000 kPa	644.1
498.83 K, 1000 kPa	596.6
507.85 K, 1010 kPa	568.9
507.87 K, 7000 kPa	646.1
507.89 K, 3010 kPa	596.3
507.91 K, 5010 kPa	620.4
507.91 K, 10000 kPa	680.6
517.71 K, 3000 kPa	567.5
517.73 K, 1000 kPa	534.7
517.79 K, 7000 kPa	619
517.81 K, 5000 kPa	594.2
518.17 K, 10000 kPa	658.9
527.51 K, 7010 kPa	600
527.6 K, 1010 kPa	500
527.66 K, 3010 kPa	537.5
528.05 K, 10000 kPa	631.9
528.28 K, 5010 kPa	569.1
537.38 K, 1000 kPa	472.9
537.57 K, 7000 kPa	569.9
537.63 K, 3010 kPa	511.3
537.67 K, 5000 kPa	543.3
537.72 K, 9990 kPa	609.6
547.06 K, 1000 kPa	438.8
547.13 K, 5010 kPa	516
547.47 K, 10010 kPa	583.9
547.67 K, 7000 kPa	544
547.87 K, 3000 kPa	480.9
557.84 K, 1000 kPa	403.8
557.94 K, 5010 kPa	489.3
558.16 K, 7000 kPa	515.9
558.18 K, 10010 kPa	561.2
558.2 K, 3000 kPa	448
567.35 K, 1010 kPa	371.2
567.7 K, 5000 kPa	461
567.81 K, 7000 kPa	495.4
567.91 K, 3010 kPa	418.8
567.95 K, 10010 kPa	543.8
577.4 K, 3010 kPa	389.4
577.79 K, 5000 kPa	432.1
577.89 K, 7000 kPa	469.8
578.16 K, 10000 kPa	522.9
587.88 K, 3000 kPa	361.9
588.02 K, 5010 kPa	411.1
588.47 K, 7010 kPa	450.4
597.58 K, 3000 kPa	331.4
598.07 K, 7000 kPa	426.9
598.29 K, 5010 kPa	384.1
608.09 K, 7010 kPa	400.7
608.23 K, 5000 kPa	353.7
608.38 K, 3000 kPa	294.3
